US20240238424A1, “HETEROBIFUNCTIONAL COMPOUNDS AND METHODS OF TREATING DISEASE” (Halda Therapeutics OpCo, Inc., priority 2021, published 2024)

Molecular target: T1, GSPT1 (Homo sapiens, UniProt P15170+Q96SW2)
T1 construct: host or cells: HEK293 LgBiT cell line
Test: GSPT1 HiBit degradation assay
Type: cell-based
Conditions: Table 3A; HEK293 LgBiT cells expressing GSPT1_HiBiT, luminescence after 6 hours
Text: Promega developed a HEK293 cell line that constitutively expresses LgBiT protein and GSPT1_HiBiT fusion protein. When both proteins are present, the HiBiT portion of the fusion protein combines with LgBiT protein to form a functional luciferase enzyme. Endurazine, a cell permeable small molecule, is converted by cellular esterases into furimazine, which the luciferase enzyme uses as a substrate to generate luminescence. When GSPT1 is degraded, the HiBit is also degraded. This prevents formation of fully functional luciferase, leading to a loss in luminescence. GSPT1 degradation therefore correlates with a decrease in luminescence and can be measured continuously over time. The concentration of compound at which 50% GSPT1 degradation occurs (DC50) was calculated using this system.
• HEK293 LgBiT Cell line (Promega Custom) • Endurazine Substrate (Promega Cat. #N2570) • DMEM (Gibco Cat. #11995) • Penicillin/Streptomycin (Gibco Cat. #15140-122) • Heat Inactivated Fetal Bovine Serum (Gibco Cat. #A38400-01) • Hygromycin B (Gibco Cat. #10-687-010) • 384 Well TC Treated White Microplate (Perkin Elmer Cat. #6007680)
HEK293 LgBiT cells were cultured in DMEM Media supplemented with 10% FBS, 5% Pen/Strep, 200 μg/ml hygromycin and stored in an incubator set at 37° C. and 5% CO2. 18-24 hours prior to compound treatment, HEK293 LgBiT cells were seeded at 1000 cells/well in a 384-well microplate in 25 μl complete media. The plate was spun at 300 g for 30 seconds and stored in the incubator overnight. The next day, compounds were titrated in DMSO and added to media supplemented with endurazine substrate. A 25 ul aliquot of 2× compound/endurazine in media were then added to the 384-well microplate with seeded cells. (Endurazine was used at a final concentration of 0.5×). The plate was spun at 300 g for 30 seconds and stored in the incubator. After 6 hours the plate was read on a Perkin Elmer MultiMode Plate Reader Envision 2105 to measure luminescence signal.

T1 sequence (P15170 whole entry): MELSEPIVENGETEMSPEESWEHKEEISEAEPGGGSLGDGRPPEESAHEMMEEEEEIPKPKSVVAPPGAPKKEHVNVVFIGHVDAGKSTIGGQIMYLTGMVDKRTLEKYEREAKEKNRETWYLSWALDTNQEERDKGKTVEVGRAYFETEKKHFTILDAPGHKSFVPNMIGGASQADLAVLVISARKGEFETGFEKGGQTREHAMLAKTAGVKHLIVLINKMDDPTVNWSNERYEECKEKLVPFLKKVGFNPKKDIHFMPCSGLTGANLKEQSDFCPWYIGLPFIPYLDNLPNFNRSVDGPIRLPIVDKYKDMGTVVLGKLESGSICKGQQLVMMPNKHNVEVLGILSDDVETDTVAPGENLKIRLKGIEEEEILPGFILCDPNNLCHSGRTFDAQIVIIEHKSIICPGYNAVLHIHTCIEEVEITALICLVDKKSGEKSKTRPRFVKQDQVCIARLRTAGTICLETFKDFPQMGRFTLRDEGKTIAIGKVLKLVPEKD
T1 sequence (Q96SW2 whole entry): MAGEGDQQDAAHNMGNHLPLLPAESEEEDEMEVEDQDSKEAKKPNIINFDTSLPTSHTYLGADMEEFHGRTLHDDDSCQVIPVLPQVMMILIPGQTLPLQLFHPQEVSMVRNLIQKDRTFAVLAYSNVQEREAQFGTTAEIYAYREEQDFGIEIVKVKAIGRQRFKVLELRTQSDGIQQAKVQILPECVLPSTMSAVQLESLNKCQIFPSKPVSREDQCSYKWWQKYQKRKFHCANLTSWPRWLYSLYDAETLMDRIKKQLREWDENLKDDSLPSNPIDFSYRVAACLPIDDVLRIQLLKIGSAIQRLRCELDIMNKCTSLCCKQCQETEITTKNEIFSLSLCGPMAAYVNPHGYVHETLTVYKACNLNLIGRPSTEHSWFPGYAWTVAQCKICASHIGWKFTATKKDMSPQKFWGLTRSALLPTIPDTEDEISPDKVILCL
T1 sequence (Q16531 whole entry partner): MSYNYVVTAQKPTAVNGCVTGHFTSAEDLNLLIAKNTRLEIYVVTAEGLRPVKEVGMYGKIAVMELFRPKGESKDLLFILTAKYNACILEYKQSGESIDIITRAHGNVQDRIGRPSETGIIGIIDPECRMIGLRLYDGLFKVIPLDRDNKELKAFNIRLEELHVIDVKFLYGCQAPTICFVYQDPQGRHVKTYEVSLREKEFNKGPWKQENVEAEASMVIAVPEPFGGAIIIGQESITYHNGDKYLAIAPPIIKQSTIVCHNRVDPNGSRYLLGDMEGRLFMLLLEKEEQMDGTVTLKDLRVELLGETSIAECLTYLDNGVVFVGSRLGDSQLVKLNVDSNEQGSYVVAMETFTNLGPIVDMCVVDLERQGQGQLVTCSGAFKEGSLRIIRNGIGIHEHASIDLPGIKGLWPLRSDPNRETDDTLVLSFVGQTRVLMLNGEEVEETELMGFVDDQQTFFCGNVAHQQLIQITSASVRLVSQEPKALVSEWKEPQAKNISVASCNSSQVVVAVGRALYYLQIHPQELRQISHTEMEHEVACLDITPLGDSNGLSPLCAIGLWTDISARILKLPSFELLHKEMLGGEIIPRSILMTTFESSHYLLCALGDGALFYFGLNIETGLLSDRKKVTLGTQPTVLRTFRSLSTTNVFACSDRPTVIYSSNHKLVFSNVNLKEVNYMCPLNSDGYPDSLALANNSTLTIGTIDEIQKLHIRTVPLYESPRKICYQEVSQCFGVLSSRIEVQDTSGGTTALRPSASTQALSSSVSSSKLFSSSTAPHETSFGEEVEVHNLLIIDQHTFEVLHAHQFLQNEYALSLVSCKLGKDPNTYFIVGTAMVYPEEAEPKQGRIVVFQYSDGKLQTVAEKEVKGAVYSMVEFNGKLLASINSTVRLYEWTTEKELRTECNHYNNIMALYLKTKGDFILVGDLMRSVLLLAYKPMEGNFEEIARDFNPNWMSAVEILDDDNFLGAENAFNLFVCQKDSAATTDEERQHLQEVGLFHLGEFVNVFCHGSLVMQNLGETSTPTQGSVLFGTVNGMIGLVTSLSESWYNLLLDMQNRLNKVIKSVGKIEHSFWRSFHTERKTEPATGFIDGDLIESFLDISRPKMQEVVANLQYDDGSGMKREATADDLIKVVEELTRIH

Compound | DC50
C=C(F)C(=O)N1CCN(c2nc(OC[C@@H]3CCCN3CCCOCCOCCOCCOCCOCCOCCOCCOCCCCCCCCc3cc(Cl)cc(NC(=O)NCc4ccc5c(c4)CN(C4CCC(=O)NC4=O)C5=O)c3)nc3c2CCN(c2cccc4cccc(Cl)c24)C3)C[C@@H]1CC#N (stereo partly shown) [Compound I-78] | < 250 nM
C=C(F)C(=O)N1CCN(c2nc(OC[C@@H]3CCCN3CCCOCCOCCOCCOCCOCCOCCOCCOCCOCCOCCCCCCCCc3cc(Cl)cc(NC(=O)NCc4ccc5c(c4)CN(C4CCC(=O)NC4=O)C5=O)c3)nc3c2CCN(c2cccc4cccc(Cl)c24)C3)C[C@@H]1CC#N (stereo partly shown) [Compound I-80] | 250 to 5000 nM
CN(C/C=C/C(=O)N1CCN(c2nc(OC[C@@H]3CCCN3C)nc3c2CCN(c2cccc4cccc(Cl)c24)C3)C[C@@H]1CC#N)CCOCCOCCOCCOCCCCCCCCc1cc(Cl)cc(NC(=O)NCc2ccc3c(c2)CN(C2CCC(=O)NC2=O)C3=O)c1 (stereo partly shown) [Compound I-81] | < 250 nM
Nc1ncnc2c1c(-c1ccc(Oc3ccccc3)cc1)nn2[C@@H]1CCCN(C(=O)/C=C/COCCOCCOCCOCCOCCCCCCCCc2cc(Cl)cc(NC(=O)NCc3ccc4c(c3)CN(C3CCC(=O)NC3=O)C4=O)c2)C1 (stereo partly shown) [Compound I-82] | < 250 nM
CN(C/C=C/C(=O)N1CCC[C@@H](n2nc(-c3ccc(Oc4ccccc4)cc3)c3c(N)ncnc32)C1)CCOCCOCCOCCOCCOCCOCCOCCOCCOCCOCCCCCCCCc1cc(Cl)cc(NC(=O)NCc2ccc3c(c2)CN(C2CCC(=O)NC2=O)C3=O)c1 (stereo partly shown) [Compound I-83] | 250 to 5000 nM
CN(C/C=C/C(=O)N1CCN(c2nc(OC[C@@H]3CCCN3C)nc3c2CCN(c2cccc4cccc(Cl)c24)C3)C[C@@H]1CC#N)CCOCCOCCOCCOCCOCCOCCCCCCCCc1cc(Cl)cc(NC(=O)NCc2ccc3c(c2)CN(C2CCC(=O)NC2=O)C3=O)c1 (stereo partly shown) [Compound I-84] | < 250 nM
Nc1ncnc2c1c(-c1ccc(Oc3ccccc3)cc1)nn2[C@@H]1CCCN(C(=O)/C=C/COCCOCCOCCOCCOCCOCCOCCCCCCCCc2cc(Cl)cc(NC(=O)NCc3ccc4c(c3)CN(C3CCC(=O)NC3=O)C4=O)c2)C1 (stereo partly shown) [Compound I-85] | < 250 nM
CN(C/C=C/C(=O)N1CCN(c2nc(OC[C@H]3CCCN3C)nc3c2CCN(c2cccc4cccc(Cl)c24)C3)C[C@@H]1CC#N)CCOCCOCCOCCOCCOCCOCCOCCOCCCCCCCCc1cc(Cl)cc(NC(=O)NCc2ccc3c(c2)CN(C2CCC(=O)NC2=O)C3=O)c1 (stereo partly shown) [Compound I-86] | 250 to 5000 nM
CN(C/C=C/C(=O)N1CCN(c2nc(OC[C@@H]3CCCN3C)nc3c2CCN(c2cccc4cccc(Cl)c24)C3)C[C@@H]1CC#N)CCOCCOCCOCCOCCOCCOCCOCCOCCOCCOCCCCCCCCc1cc(Cl)cc(NC(=O)NCc2ccc3c(c2)CN(C2CCC(=O)NC2=O)C3=O)c1 (stereo partly shown) [Compound I-87] | 250 to 5000 nM
CN(C/C=C/C(=O)N1CCN(c2nc(OC[C@@H]3CCCN3C)nc3c2CCN(c2cccc4cccc(Cl)c24)C3)C[C@@H]1CC#N)CCOCCOCCOCCOCCOCCOCCOCCOCCOCCOCCOCCOCCCCCCCCc1cc(Cl)cc(NC(=O)NCc2ccc3c(c2)CN(C2CCC(=O)NC2=O)C3=O)c1 (stereo partly shown) [Compound I-88] | 250 to 5000 nM
Nc1ncnc2c1c(-c1ccc(Oc3ccccc3)cc1)nn2[C@@H]1CCCN(C(=O)/C=C/COCCOCCOCCOCCOCCOCCOCCOCCOCCCCCCCCc2cc(Cl)cc(NC(=O)NCc3ccc4c(c3)CN(C3CCC(=O)NC3=O)C4=O)c2)C1 (stereo partly shown) [Compound I-93] | < 250 nM
Nc1ncnc2c1c(-c1ccc(Oc3ccccc3)cc1)nn2[C@@H]1CCCN(C(=O)/C=C/COCCOCCOCCOCCOCCOCCOCCOCCOCCOCCOCCCCCCCCc2cc(Cl)cc(NC(=O)NCc3ccc4c(c3)CN(C3CCC(=O)NC3=O)C4=O)c2)C1 (stereo partly shown) [Compound I-94] | 250 to 5000 nM
Cc1c(NC(=O)c2ccc(C3CC3)cc2F)cc(F)cc1-c1ncnc(N)c1OCCN(C)C(=O)/C=C/CN(C)CCOCCOCCOCCOCCCCCCCCc1cc(Cl)cc(NC(=O)NCc2ccc3c(c2)CN(C2CCC(=O)NC2=O)C3=O)c1 (stereo not shown) [Compound I-96] | < 250 nM
Cc1c(NC(=O)c2ccc(C3CC3)cc2F)cc(F)cc1-c1ncnc(N)c1OCCN(C)C(=O)/C=C/CN(C)CCOCCOCCOCCOCCOCCOCCCCCCCCc1cc(Cl)cc(NC(=O)NCc2ccc3c(c2)CN(C2CCC(=O)NC2=O)C3=O)c1 (stereo not shown) [Compound I-97] | < 250 nM
Cc1c(NC(=O)c2ccc(C3CC3)cc2F)cc(F)cc1-c1ncnc(N)c1OCCN(C)C(=O)/C=C/CN(C)CCOCCOCCOCCOCCOCCOCCOCCOCCOCCOCCCCCCCCc1cc(Cl)cc(NC(=O)NCc2ccc3c(c2)CN(C2CCC(=O)NC2=O)C3=O)c1 (stereo not shown) [Compound I-98] | < 250 nM
C=C(F)C(=O)N1CCN(c2nc(OC[C@@H]3C[C@@H](OCCOCCOCCOCCOCCCCCCCCc4cccc(NC(=O)NCc5ccc6c(c5)CN(C5CCC(=O)NC5=O)C6=O)c4)CN3C)nc3c2CCN(c2cccc4cccc(Cl)c24)C3)C[C@@H]1CC#N (stereo partly shown) [Compound I-99] | 250 to 5000 nM

Compound | DC50
CCC(=O)N1CCN(c2nc(OC[C@@H]3CCCN3CCOCCOCCOCCOCCOCCOCCOCCOCCOCCOCCOCCOCCOCCOCCCCCCCCc3cc(Cl)cc(NC(=O)NCc4ccc5c(c4)CN(C4CCC(=O)NC4=O)C5=O)c3)nc3c2CCN(c2cccc4cccc(Cl)c24)C3)CC1CC#N (stereo partly shown) [Compound I-103] | 250 to 5000 nM
CN(C/C=C/C(=O)N1CCC[C@@H](n2nc(-c3ccc(Oc4ccccc4)cc3)c3c(N)ncnc32)C1)CCOCCOCCOCCOCCOCCCCCc1cc(Cl)cc(NC(=O)NCc2ccc3c(c2)CN(C2CCC(=O)NC2=O)C3=O)c1 (stereo partly shown) [Compound I-104] | 250 to 5000 nM
Cc1c(NC(=O)c2ccc(C3CC3)cc2F)cc(F)cc1-c1ncnc(N)c1OCCN(C)C(=O)/C=C/CN(C)CCOCCOCCOCCOCCOCCCCCc1cc(Cl)cc(NC(=O)NCc2ccc3c(c2)CN(C2CCC(=O)NC2=O)C3=O)c1 (stereo not shown) [Compound I-105] | < 250 nM
CCC(=O)N1CCN(c2nc(OC[C@@H]3CCCN3CCOCCOCCOCCOCCOCCOCCOCCOCCOCCOCCOCCOCCOCCOCCCCCCCCc3cc(Cl)cc(NC(=O)NCc4ccc5c(c4)CN(C4CCC(=O)NC4=O)C5=O)c3)nc3c2CCN(c2cccc4cccc(Cl)c24)C3)C[C@@H]1CC#N (stereo partly shown) [Compound I-106] | 250 to 5000 nM
CN(C/C=C/C(=O)N1CCN(c2nc(OC[C@@H]3CCCN3C)nc3c2CCN(c2cccc4cccc(Cl)c24)C3)C[C@@H]1CC#N)CCOCCOCCOCCOCCOCCCCCc1cc(Cl)cc(NC(=O)NCc2ccc3c(c2)CN(C2CCC(=O)NC2=O)C3=O)c1 (stereo partly shown) [Compound I-108] | 250 to 5000 nM
CN(C/C=C/C(=O)N1CCC[C@@H](n2nc(-c3ccc(Oc4ccccc4)cc3)c3c(N)ncnc32)C1)CCOCCOCCOCCCCCc1cc(Cl)cc(NC(=O)NCc2ccc3c(c2)CN(C2CCC(=O)NC2=O)C3=O)c1 (stereo partly shown) [Compound I-110] | 250 to 5000 nM
CN(C/C=C/C(=O)N1CCC[C@@H](n2nc(-c3ccc(Oc4ccccc4)cc3)c3c(N)ncnc32)C1)CCOCCOCCOCCOCCOCCOCCOCCCCCc1cc(Cl)cc(NC(=O)NCc2ccc3c(c2)CN(C2CCC(=O)NC2=O)C3=O)c1 (stereo partly shown) [Compound I-111] | 250 to 5000 nM
Cc1c(NC(=O)c2ccc(C3CC3)cc2F)cc(F)cc1-c1ncnc(N)c1OCCN(C)C(=O)/C=C/CN(C)CCOCCOCCOCCCCCc1cc(Cl)cc(NC(=O)NCc2ccc3c(c2)CN(C2CCC(=O)NC2=O)C3=O)c1 (stereo not shown) [Compound I-112] | 250 to 5000 nM
Cc1c(NC(=O)c2ccc(C3CC3)cc2F)cc(F)cc1-c1ncnc(N)c1OCCN(C)C(=O)/C=C/CN(C)CCOCCOCCOCCOCCOCCOCCOCCCCCc1cc(Cl)cc(NC(=O)NCc2ccc3c(c2)CN(C2CCC(=O)NC2=O)C3=O)c1 (stereo not shown) [Compound I-113] | 250 to 5000 nM
Cc1ccc(NC(=O)NC(CCCCCOCCOCCOCCOCCOCCN(C)C/C=C/C(=O)N2CCN(c3nc(OC[C@@H]4CCCN4C)nc4c3CCN(c3cccc5cccc(Cl)c35)C4)C[C@@H]2CC#N)c2ccc3c(c2)CN(C2CCC(=O)NC2=O)C3=O)cc1Cl (stereo partly shown) [Compound I-114] | > 10000 nM
Cc1ccc(NC(=O)NC(CCCCCOCCOCCOCCN(C)C/C=C/C(=O)N2CCN(c3nc(OC[C@@H]4CCCN4C)nc4c3CCN(c3cccc5cccc(Cl)c35)C4)C[C@@H]2CC#N)c2ccc3c(c2)CN(C2CCC(=O)NC2=O)C3=O)cc1Cl (stereo partly shown) [Compound I-115] | 5000 to 10000 nM
CN(C/C=C/C(=O)N1CCC[C@@H](n2nc(-c3ccc(Oc4ccccc4)cc3)c3c(N)ncnc32)C1)CCOCCOCCOCCOCCOCCOCCOCCOCCOCCCCCc1cc(Cl)cc(NC(=O)NCc2ccc3c(c2)CN(C2CCC(=O)NC2=O)C3=O)c1 (stereo partly shown) [Compound I-117] | 5000 to 10000 nM
COc1cc(N2CCN(C(=O)COCCOCCOCCOCCOCCCCCc3cc(Cl)cc(NC(=O)NCc4ccc5c(c4)CN(C4CCC(=O)NC4=O)C5=O)c3)CC2)ccc1Nc1ncc(Cl)c(Nc2ccccc2P(C)(C)=O)n1 (stereo not shown) [Compound I-119] | 250 to 5000 nM
COc1cc(N2CCN(C(=O)COCCOCCOCCCCCc3cc(Cl)cc(NC(=O)NCc4ccc5c(c4)CN(C4CCC(=O)NC4=O)C5=O)c3)CC2)ccc1Nc1ncc(Cl)c(Nc2ccccc2P(C)(C)=O)n1 (stereo not shown) [Compound I-121] | < 250 nM
C=CC(=O)NC1CN(c2nc(Nc3cn(CCOCCOCCOCCOCCOCCOCCOCCOCCOCCCCCc4cc(Cl)cc(NC(=O)NCc5ccc6c(c5)CN(C5CCC(=O)NC5=O)C6=O)c4)nc3OC)c3ncn(C)c3n2)C[C@H]1F (stereo partly shown) [Compound I-126] | 250 to 5000 nM
